According to US20240261297A1, “ANTI-CDK INHIBITORS FOR CANCER TREATMENT” (St. John's Cancer Institute, priority 2021, published 2024):
Like-named read-outs stand apart in the source and are kept apart here.

Tests used:
[1] = Snapshot plasma pharmacokinetics in mice; type: in vivo
Protocol: Evaluation of pharmacokinetic (PK) parameters and efficacy of I-3 in a xenograft model was carried out in mice. […] Briefly, mice were treated with 5 mg/kg of 1-3 or merioline-3. Plasma was then collected at different time points and measured for drug concentration. […] PK parameters of I-3 was also compared to a panel of CDK inhibitors (Table 13). […] Likewise, Ribociclib has a better Cmax than I-3, but it is primarily a CDK4/6 inhibitor.

CDK1/cyclin B = CDK1/cyclin B (Homo sapiens, UniProt P06493); assay: Radioisotope-based protein kinase assay; type: biochemical; details: 10 μM ATP, 3-fold dilution from 10 μM
Chain of CDK1/cyclin B (P06493 whole entry, canonical isoform): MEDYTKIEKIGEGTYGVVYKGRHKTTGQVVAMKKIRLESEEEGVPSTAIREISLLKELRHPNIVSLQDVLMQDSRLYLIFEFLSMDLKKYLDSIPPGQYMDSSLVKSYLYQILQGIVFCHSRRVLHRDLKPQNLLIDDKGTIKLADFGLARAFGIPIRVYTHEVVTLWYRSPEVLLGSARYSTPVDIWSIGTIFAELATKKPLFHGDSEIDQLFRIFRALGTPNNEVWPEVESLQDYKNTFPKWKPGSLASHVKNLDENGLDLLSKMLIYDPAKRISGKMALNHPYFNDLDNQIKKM
Chain of CDK1/cyclin B (P14635 whole entry partner, canonical isoform): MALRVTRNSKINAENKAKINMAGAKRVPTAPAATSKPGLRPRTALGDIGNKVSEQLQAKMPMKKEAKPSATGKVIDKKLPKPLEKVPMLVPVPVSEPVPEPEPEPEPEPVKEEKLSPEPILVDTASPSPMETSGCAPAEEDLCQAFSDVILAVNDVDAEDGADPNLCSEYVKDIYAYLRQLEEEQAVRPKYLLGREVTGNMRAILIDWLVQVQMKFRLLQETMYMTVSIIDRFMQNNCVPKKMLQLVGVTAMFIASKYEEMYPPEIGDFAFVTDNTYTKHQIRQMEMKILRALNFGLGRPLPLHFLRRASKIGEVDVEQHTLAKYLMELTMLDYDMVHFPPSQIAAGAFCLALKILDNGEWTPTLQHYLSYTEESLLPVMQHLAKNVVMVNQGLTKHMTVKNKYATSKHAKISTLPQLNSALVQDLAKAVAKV
Protocol: (§1) A series of test compounds were selected for initial screening against CDK isoforms. Protein kinase assays were performed with gold standard radioisotope-based assay formats to measuring enzyme activity remaining in presence and absence of inhibitor.

CDK2/cyclin E = CDK2/cyclin E (Homo sapiens, UniProt P24941); assay: Radioisotope-based protein kinase assay; type: biochemical; details: 10 μM ATP, 3-fold dilution from 10 μM
Protocol: as §1

CDK4/cyclin D1 = CDK4/cyclin D1 (Homo sapiens, UniProt P11802); assay: Radioisotope-based protein kinase assay; type: biochemical; details: 10 μM ATP, 3-fold dilution from 10 μM
Chain of CDK4/cyclin D1 (P11802 whole entry): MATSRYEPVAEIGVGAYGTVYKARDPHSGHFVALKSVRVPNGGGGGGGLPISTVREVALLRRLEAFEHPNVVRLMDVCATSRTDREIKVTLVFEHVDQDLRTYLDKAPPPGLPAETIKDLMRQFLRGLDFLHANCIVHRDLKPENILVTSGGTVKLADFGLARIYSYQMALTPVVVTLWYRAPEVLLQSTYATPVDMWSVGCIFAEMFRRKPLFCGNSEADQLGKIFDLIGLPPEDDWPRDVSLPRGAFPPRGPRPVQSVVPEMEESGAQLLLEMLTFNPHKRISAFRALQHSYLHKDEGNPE
Chain of CDK4/cyclin D1 (P24385 whole entry partner): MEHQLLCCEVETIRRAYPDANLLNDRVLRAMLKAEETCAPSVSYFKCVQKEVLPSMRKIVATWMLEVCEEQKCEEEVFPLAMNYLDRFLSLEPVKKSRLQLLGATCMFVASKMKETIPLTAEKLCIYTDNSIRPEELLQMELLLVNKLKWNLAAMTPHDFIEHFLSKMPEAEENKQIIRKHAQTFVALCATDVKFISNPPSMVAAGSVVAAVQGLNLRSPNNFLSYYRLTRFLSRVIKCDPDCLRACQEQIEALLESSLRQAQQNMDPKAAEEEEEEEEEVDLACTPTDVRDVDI
Protocol: as §1

MDA-MB-468 = assay: Cell viability in breast cancer cell lines; type: cell-based; details: MDA-MB-468, 72 hours, Table 6, read-out: Cell viability by CellTiter Glo IC50
Description: (§2) Tables 5 and 6 show assessment of in vitro efficacy of I-3 in a panel of breast cancer cell lines.

MCF-10A = assay: Cell viability in breast cell lines; type: cell-based; details: MCF-10A, 72 hours, Table 6, read-out: Cell viability by CellTiter Glo IC50
Description: as §2

CDK1/cyclin A = CDK1/cyclin A (Homo sapiens, UniProt P06493); assay: Radioisotope-based protein kinase assay; type: biochemical; details: 10 μM ATP, 3-fold dilution from 10 μM
Protocol: as §1

CDK2/cyclin A = CDK2/cyclin A (Homo sapiens, UniProt P24941); assay: Radioisotope-based protein kinase assay; type: biochemical; details: 10 μM ATP, 3-fold dilution from 10 μM
Protocol: as §1

CDK6/cyclin D1 = CDK6/cyclin D1 (Homo sapiens, UniProt Q00534); assay: Radioisotope-based protein kinase assay; type: biochemical; details: 10 μM ATP, 3-fold dilution from 10 μM
Chain of CDK6/cyclin D1 (Q00534 whole entry): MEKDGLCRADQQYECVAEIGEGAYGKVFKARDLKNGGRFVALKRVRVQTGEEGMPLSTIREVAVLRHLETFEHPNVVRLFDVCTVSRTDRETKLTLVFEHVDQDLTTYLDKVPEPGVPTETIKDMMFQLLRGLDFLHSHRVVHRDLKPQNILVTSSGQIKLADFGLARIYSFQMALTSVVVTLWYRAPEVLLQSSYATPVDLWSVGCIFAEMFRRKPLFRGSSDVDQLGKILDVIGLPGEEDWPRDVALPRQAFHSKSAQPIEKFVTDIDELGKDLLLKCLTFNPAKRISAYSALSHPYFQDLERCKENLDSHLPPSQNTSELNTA
Chain of CDK6/cyclin D1 (P24385 whole entry partner): as the sequence (P24385 whole entry partner) above
Protocol: as §1

CDK7/cyclin H = CDK7/cyclin H (Homo sapiens, UniProt P50613); assay: Radioisotope-based protein kinase assay; type: biochemical; details: 10 μM ATP, 3-fold dilution from 10 μM
Chain of CDK7/cyclin H (P50613 whole entry): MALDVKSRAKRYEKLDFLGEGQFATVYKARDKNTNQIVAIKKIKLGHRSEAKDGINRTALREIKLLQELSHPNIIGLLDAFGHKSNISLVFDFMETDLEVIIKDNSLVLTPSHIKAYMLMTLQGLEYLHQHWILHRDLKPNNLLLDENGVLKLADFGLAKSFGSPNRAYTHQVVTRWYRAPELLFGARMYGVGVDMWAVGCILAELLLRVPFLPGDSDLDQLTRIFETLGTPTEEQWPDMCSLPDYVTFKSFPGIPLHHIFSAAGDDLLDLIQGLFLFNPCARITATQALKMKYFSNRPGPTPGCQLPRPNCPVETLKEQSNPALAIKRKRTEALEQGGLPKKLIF
Chain of CDK7/cyclin H (P51946 whole entry partner): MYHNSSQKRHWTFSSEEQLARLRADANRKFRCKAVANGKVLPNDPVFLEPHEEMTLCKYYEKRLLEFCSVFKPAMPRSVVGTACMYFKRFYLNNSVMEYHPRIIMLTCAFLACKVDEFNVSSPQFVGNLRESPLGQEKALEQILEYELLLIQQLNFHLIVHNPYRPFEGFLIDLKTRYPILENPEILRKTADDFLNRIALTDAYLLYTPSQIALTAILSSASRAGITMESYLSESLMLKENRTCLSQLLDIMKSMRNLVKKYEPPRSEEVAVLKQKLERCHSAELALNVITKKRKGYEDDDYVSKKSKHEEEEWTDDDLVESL
Chain of CDK7/cyclin H (P51948 whole entry partner): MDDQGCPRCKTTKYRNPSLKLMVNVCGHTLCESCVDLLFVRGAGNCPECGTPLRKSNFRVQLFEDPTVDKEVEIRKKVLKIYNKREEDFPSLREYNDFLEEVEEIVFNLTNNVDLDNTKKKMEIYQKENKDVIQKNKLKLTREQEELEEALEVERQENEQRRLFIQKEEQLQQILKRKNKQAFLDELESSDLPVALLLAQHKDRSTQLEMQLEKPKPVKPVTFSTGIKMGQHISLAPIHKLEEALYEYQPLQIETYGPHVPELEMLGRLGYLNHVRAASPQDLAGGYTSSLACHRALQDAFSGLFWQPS
Protocol: as §1

CDK9/cyclin T1 = CDK9/cyclin T1 (Homo sapiens, UniProt P50750); assay: Radioisotope-based protein kinase assay; type: biochemical; details: 10 μM ATP, 3-fold dilution from 10 μM
Chain of CDK9/cyclin T1 (P50750 whole entry): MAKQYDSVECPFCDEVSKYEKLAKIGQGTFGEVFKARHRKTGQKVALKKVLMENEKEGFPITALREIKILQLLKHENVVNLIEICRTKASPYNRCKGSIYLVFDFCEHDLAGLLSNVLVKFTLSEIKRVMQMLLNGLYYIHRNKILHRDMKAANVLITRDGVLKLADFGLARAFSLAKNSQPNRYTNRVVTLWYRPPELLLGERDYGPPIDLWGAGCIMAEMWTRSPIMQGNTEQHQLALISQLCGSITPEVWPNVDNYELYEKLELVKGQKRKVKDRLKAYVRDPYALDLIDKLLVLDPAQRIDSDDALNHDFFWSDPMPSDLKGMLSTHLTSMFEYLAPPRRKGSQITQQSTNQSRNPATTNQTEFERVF
Chain of CDK9/cyclin T1 (O60563 whole entry partner): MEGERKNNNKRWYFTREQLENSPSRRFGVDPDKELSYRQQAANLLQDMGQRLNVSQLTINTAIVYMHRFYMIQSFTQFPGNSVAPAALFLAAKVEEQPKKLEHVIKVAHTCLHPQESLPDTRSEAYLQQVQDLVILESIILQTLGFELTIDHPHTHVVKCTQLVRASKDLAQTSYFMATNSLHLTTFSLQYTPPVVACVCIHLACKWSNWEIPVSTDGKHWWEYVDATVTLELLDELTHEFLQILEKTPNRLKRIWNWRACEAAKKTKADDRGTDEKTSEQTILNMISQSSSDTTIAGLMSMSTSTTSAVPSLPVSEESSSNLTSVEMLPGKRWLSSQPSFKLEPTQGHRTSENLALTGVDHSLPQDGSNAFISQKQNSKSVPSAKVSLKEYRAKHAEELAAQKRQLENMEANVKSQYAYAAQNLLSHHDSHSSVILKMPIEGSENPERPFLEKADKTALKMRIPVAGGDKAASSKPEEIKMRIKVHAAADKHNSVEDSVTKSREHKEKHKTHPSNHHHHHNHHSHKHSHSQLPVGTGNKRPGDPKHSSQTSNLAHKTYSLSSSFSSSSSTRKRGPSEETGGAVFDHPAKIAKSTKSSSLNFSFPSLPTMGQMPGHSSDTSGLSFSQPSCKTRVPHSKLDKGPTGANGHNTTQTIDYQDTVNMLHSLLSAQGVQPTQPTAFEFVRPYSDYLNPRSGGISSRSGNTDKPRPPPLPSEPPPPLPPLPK
Protocol: as §1

CKD9/Cyclin H = CKD9/Cyclin H (Homo sapiens, UniProt P50750); assay: Biochemical profile against CDKs and binding partners (Table 3)
Chain of CKD9/Cyclin H (P50750 whole entry): as the sequence (P50750 whole entry) above
Protocol: as §1

[2] = tested on: caspase 3/7 in MDA-MB-468 cells; assay: Caspase Glo 3/7 activity assay in MDA-MB-468 cells; type: cell-based; details: 24 hours
Protocol: Further anti-proliferative effect of 1-3 was evaluated in the TNBC cell line MDA-MB-468 based on biomarker (CDK2) inhibition. […] The mechanistic cell cycle block is aligned with biomarker. In addition, Caspase Glo 3/7 activation was tested to confirm the sub-G1 (apoptotic) arrest in cell cycle.

PLC/PRF/5 cells = assay: Cell viability of HCC cells by CellTiter Glo assay; type: cell-based; details: 72 hours
Protocol: FIG. 5 is a graph showing cell viability of hepatocellular carcinoma (HCC) cell lines treated with I-3 for 72 hours, assessed by CellTiter Glo assay, with the control level of cells considered 100%.
I-3 was also tested for efficacy on hepatocellular carcinoma (HCC) cell lines. Cell viability was measured by CellTiter Glo assay (FIG. 5 and Table 8).

[3] = tested on: caspase 3/7 in PLC/PRF/5 cells; assay: Caspase Glo 3/7 activity assay in PLC/PRF/5 cells; type: cell-based
CDK5/p35 = CDK5/p35 (Homo sapiens, UniProt Q00535); assay: Radioisotope-based protein kinase assay; type: biochemical; details: Table 2
Chain of CDK5/p35 (Q00535 whole entry): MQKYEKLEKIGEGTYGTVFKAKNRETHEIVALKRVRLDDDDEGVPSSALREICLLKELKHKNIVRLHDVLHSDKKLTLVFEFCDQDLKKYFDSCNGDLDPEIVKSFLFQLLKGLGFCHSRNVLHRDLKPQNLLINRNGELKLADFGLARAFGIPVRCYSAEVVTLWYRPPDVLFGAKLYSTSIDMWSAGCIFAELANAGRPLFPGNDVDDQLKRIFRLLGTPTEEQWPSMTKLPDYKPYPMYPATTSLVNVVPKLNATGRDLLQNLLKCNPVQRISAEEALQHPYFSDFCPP
Chain of CDK5/p35 (Q15078 whole entry partner): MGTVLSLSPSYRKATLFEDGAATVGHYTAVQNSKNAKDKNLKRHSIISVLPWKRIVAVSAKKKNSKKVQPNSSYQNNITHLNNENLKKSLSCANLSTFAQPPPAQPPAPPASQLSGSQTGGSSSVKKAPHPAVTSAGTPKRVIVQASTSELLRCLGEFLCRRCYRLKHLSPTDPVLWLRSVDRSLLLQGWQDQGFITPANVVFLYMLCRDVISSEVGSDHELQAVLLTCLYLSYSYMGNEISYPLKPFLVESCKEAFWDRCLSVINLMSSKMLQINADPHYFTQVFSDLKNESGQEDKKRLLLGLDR
Protocol: as §1
The activity of compound I-3 was compared to that of a panel of CDKs and their respective binding partners (Tables 2 and 3).

[4] = PO 5 mg/kg, cassette dosing, plasma

## CCN1CCN(Cc2ccc(Nc3ncc(F)c(-c4cc(F)c5nc(C)n(C(C)C)c5c4)n3)nc2)CC1 [Abemaciclib]
[1]; mouse, in vivo
  Tmax: 5.5 h
[1]; mouse, in vivo, AUCinf
  AUC(0-inf): 613 ng·h/mL
[1]; mouse, in vivo, Cmax
  Cmax: 107 ng/mL

## CC[C@H](Nc1nc(NCc2cnc(C)cc2C)c2ncn(C(C)C)c2n1)[C@@H](C)O [CYC065, reference compound]
CDK1/cyclin B
  IC50: 578 nM
CDK2/cyclin E
  IC50: 5 nM
CDK4/cyclin D1
  IC50: 21 nM
MDA-MB-468; Homo sapiens
  IC50: 380 nM
MCF-10A; Homo sapiens
  IC50: 400 nM

## Nc1nccc(-c2c[nH]c3nccc(Oc4ccccc4)c23)n1 [I-1, 4-(4-phenoxy-1H-pyrrolo[2,3-b]pyridin-3-yl)pyrimidin-2-amine]
CDK1/cyclin A
  IC50: 3 nM
CDK1/cyclin B
  IC50: 4 nM
CDK2/cyclin A
  IC50: 3 nM
CDK2/cyclin E
  IC50: 2 nM
CDK4/cyclin D1
  IC50: 259 nM
CDK6/cyclin D1
  IC50: 138 nM

## Nc1nccc(-c2c[nH]c3nccc(Oc4cccc(Cl)c4)c23)n1 [I-2, 4-(4-(3-chlorophenoxy)-1H-pyrrolo[2,3-b]pyridin-3-yl)pyrimidin-2-amine]
CDK1/cyclin A
  IC50: 11 nM
CDK1/cyclin B
  IC50: 16 nM
CDK2/cyclin A
  IC50: 9 nM
CDK2/cyclin E
  IC50: 8 nM
CDK4/cyclin D1
  IC50: 875 nM
CDK6/cyclin D1
  IC50: 819 nM

## Nc1nccc(-c2c[nH]c3nccc(Oc4cc(F)cc(F)c4)c23)n1 [I-4, 4-(4-(3,5-difluorophenoxy)-1H-pyrrolo[2,3-b]pyridin-3-yl)pyrimidin-2-amine]
CDK1/cyclin B
  IC50: 7 nM
CDK2/cyclin E
  IC50: 2 nM
CDK4/cyclin D1
  IC50: 462 nM

## Nc1nccc(-c2c[nH]c3nccc(Oc4cccc(C(F)(F)F)c4)c23)n1 [I-5, 4-(4-(3-(trifluoromethyl)phenoxy)-1H-pyrrolo[2,3-b]pyridin-3-yl)pyrimidin-2-amine]
CDK2/cyclin E
  IC50: 27 nM
CDK7/cyclin H
  IC50: 43 nM
CDK9/cyclin T1
  IC50: 16 nM

## Nc1nccc(-c2c[nH]c3nccc(Oc4ccc(F)cc4)c23)n1 [I-6, 4-(4-(4-fluorophenoxy)-1H-pyrrolo[2,3-b]pyridin-3-yl)pyrimidin-2-amine]
CDK1/cyclin A
  IC50: 4 nM
CDK2/cyclin A
  IC50: 5 nM
CDK6/cyclin D1
  IC50: 196 nM
CDK9/cyclin T1
  IC50: 3 nM

## CNC(=O)c1nn(C)c2c1C(C)(C)Cc1cnc(Nc3ccc(N4CCN(C)CC4)cc3)nc1-2 [Milciclib]
CDK1/cyclin B
  IC50: 398 nM
CDK2/cyclin E
  IC50: 363 nM
[1]; mouse, in vivo
  Tmax: 3.5 h
[1]; mouse, in vivo, AUCinf
  AUC(0-inf): 2980 ng·h/mL
[1]; mouse, in vivo, Cmax
  Cmax: 537 ng/mL

## C[C@@]1(O)CCC[C@H]1n1c(=O)c(C(F)F)cc2cnc(NC3CCN(S(C)(=O)=O)CC3)nc21 [PF-06873600, reference compound]
CKD9/Cyclin H
  IC50: 43 nM
MDA-MB-468
  IC50: 65 nM
MCF-10A
  IC50: 660 nM
[2]
  Caspase 3/7 activation: no caspase 3/7 activation
  IC50: 5660 nM
PLC/PRF/5 cells
  IC50: 3480 nM
[3]
  IC50: 3560 nM
[1]; [4]
  Cmax: 196 ng/mL
  T1/2: 2.1 h

## CC(=O)c1c(C)c2cnc(Nc3ccc(N4CCNCC4)cn3)nc2n(C2CCCC2)c1=O [Palbociclib]
[1]; mouse, plasma, oral, 5 mg/kg, in vivo PK comparison of CDK inhibitors, Table 13, read-out: AUCinf
  AUC(0-inf): 641 ng·h/mL
[1]; mouse, plasma, oral, 5 mg/kg, in vivo PK comparison of CDK inhibitors, Table 13, read-out: Cmax
  Cmax: 196 ng/mL
[1]; mouse, plasma, oral, 5 mg/kg, in vivo PK comparison of CDK inhibitors, Table 13, read-out: Tmax
  Tmax: 2.1 h

## CN(C)C(=O)c1cc2cnc(Nc3ccc(N4CCNCC4)cn3)nc2n1C1CCCC1 [Ribociclib]
[1]; mouse, in vivo
  Tmax: 5.7 h
[1]; mouse, in vivo, AUCinf
  AUC(0-inf): 2780 ng·h/mL
[1]; mouse, in vivo, Cmax
  Cmax: 303 ng/mL

## CNC(=O)c1cc(Oc2ccc(NC(=O)Nc3ccc(Cl)c(C(F)(F)F)c3)cc2)ccn1 [Sorafenib]
PLC/PRF/5 cells; Homo sapiens
  IC50: 6300 nM

## Merioline-3
CDK1/cyclin A
  IC50: 5 nM
CDK1/cyclin B
  IC50: 7 nM
CDK2/cyclin A
  IC50: 3 nM
CDK2/cyclin E
  IC50: 2 nM
CDK4/cyclin D1
  IC50: 182 nM
CDK6/cyclin D1
  IC50: 130 nM
CDK9/cyclin T1
  IC50: 2 nM
CDK5/p35
  IC50: 3 nM
CKD9/Cyclin H
  IC50: 2 nM
[1]; [4]
  Cmax: 178 ng/mL
[1]; mice, IV 5 mg/kg, plasma
  AUCinf: 83,600 min*ng/mL
  Cmax: 5560 ng/mL
  T1/2: 0.124 h
  Tmax: 0.0833 h
[1]; mice, PO 5 mg/kg, plasma
  AUCinf: 4340 ng·min/mL
  Cmax: 483 ng/mL
  Tmax: 1 h
